According to article PMC8799717, “Pharmacological targeting PIKfyve and tubulin as an effective treatment strategy for double-hit lymphoma” (Cell Death Discovery, 2022):

Assays:
Experiment in all cases: biochemical
Design in all cases: KINOMEscan active-site-directed competition binding panel, 468 kinases, percent of DMSO control at 1 uM
Conditions in all cases: KINOMEscan binding, percent of DMSO control; read-out: Ctrl%
[1] = target: EGFR(L747-T751del,Sins) (Homo sapiens, UniProt P00533, DEL747-750/T751S)
EGFR(L747-T751del,Sins), sequence (P00533 with tags, fused parts or gaps DEL747-750/T751S): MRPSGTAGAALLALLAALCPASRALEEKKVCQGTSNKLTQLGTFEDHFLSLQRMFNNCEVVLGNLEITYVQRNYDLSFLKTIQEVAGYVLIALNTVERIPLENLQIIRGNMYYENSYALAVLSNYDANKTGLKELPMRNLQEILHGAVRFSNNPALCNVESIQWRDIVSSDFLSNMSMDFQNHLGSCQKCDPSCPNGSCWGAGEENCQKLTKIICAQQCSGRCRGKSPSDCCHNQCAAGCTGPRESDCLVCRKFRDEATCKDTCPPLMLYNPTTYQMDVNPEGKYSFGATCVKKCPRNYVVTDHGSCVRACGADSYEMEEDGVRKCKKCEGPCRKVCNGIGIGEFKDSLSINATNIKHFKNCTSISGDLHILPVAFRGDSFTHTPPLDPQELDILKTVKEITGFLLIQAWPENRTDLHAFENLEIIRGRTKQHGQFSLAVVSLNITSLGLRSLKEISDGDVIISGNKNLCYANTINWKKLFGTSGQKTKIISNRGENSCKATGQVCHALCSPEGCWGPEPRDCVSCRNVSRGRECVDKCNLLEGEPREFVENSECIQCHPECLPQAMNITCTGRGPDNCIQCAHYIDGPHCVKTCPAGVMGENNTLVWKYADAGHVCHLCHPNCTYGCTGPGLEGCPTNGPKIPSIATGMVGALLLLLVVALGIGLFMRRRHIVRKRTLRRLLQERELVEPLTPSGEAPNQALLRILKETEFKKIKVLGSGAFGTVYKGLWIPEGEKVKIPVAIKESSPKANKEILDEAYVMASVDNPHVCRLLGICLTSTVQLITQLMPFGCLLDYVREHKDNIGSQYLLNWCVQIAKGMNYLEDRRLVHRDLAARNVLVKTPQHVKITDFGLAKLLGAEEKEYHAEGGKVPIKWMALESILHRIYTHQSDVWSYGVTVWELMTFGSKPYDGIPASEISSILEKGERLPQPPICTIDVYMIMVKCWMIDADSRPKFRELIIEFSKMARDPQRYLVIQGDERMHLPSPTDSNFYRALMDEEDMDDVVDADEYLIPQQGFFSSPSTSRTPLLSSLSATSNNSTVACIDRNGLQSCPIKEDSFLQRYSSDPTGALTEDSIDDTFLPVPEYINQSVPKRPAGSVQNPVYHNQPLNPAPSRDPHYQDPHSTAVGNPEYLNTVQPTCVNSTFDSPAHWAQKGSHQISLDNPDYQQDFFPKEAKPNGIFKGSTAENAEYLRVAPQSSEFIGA

[2] = target: T1, DMPK2 (Homo sapiens, UniProt Q6DT37)
T1 construct: gene CDC42BPG
T1 sequence (Q6DT37 whole entry): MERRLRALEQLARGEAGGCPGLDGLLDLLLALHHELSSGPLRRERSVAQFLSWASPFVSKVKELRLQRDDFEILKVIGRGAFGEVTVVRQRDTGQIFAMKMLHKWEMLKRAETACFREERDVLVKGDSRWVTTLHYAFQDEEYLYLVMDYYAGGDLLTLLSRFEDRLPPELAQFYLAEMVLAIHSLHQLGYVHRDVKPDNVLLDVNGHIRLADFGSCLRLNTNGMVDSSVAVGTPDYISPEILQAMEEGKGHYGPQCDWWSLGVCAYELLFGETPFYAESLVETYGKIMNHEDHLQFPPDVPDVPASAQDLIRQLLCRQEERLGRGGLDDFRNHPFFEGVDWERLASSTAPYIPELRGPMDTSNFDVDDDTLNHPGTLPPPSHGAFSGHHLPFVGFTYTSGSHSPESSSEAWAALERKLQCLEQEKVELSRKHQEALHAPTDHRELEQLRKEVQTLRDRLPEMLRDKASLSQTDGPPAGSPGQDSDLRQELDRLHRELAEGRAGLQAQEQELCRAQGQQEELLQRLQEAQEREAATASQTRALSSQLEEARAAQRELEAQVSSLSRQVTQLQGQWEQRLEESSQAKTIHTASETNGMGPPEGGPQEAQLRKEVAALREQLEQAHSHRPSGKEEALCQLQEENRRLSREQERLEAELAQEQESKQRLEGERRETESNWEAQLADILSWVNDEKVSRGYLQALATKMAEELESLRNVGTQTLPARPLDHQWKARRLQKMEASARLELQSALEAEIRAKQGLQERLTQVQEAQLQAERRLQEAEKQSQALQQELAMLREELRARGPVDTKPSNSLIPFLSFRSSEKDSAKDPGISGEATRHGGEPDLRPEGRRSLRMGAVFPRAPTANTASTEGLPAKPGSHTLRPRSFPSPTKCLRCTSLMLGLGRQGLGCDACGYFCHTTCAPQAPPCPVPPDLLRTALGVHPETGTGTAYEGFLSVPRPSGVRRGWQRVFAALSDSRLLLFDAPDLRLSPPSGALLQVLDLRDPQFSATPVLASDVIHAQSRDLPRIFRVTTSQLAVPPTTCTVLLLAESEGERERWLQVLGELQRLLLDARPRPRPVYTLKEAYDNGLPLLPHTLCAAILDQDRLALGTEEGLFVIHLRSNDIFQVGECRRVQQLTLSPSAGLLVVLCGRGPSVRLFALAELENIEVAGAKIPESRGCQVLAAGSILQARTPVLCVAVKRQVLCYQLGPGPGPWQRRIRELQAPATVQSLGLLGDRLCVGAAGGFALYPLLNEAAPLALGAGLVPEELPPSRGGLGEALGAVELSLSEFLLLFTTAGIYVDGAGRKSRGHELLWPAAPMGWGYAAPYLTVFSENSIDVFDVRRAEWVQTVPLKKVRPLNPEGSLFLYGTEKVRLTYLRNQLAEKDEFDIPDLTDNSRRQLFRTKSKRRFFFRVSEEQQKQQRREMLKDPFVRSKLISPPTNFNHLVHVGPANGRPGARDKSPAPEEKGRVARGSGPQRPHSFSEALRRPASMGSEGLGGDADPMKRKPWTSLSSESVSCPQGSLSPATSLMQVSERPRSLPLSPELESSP

[3] = target: DYRK1A (Homo sapiens, UniProt Q13627)
[4] = target: T2, PFTAIRE2 (Homo sapiens, UniProt Q96Q40)
T2 construct: gene CDK15

[5] = target: NEK6 (Homo sapiens, UniProt Q9HC98)
NEK6, sequence (Q9HC98 whole entry): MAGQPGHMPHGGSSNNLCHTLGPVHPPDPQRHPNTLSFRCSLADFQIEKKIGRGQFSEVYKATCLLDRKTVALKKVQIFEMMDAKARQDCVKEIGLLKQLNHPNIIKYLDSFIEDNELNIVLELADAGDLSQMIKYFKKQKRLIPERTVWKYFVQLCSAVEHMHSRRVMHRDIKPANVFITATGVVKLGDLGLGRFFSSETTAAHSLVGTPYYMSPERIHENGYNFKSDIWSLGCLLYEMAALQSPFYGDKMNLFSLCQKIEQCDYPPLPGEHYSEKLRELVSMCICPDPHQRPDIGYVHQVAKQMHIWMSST

[6] = target: CLK2 (Homo sapiens, UniProt P49760)
CLK2, sequence (P49760 whole entry): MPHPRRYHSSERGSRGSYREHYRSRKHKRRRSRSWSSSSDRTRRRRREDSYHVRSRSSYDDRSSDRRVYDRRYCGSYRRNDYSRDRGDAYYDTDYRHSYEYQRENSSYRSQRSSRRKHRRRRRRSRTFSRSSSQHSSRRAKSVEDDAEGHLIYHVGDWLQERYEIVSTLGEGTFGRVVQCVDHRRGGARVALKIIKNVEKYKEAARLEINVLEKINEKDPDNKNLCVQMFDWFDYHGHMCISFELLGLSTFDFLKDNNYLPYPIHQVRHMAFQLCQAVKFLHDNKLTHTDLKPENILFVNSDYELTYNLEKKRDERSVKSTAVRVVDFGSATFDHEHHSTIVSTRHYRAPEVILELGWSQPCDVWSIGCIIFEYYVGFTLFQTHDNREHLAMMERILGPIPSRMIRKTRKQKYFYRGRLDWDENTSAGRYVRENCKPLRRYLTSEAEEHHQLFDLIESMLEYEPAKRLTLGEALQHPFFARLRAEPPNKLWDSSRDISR

[7] = target: T3, ABL1(F317I)-phosphorylated (Homo sapiens, UniProt P00519, F317I)
T3 construct: phosphorylated
T3 sequence (P00519 whole entry F317I): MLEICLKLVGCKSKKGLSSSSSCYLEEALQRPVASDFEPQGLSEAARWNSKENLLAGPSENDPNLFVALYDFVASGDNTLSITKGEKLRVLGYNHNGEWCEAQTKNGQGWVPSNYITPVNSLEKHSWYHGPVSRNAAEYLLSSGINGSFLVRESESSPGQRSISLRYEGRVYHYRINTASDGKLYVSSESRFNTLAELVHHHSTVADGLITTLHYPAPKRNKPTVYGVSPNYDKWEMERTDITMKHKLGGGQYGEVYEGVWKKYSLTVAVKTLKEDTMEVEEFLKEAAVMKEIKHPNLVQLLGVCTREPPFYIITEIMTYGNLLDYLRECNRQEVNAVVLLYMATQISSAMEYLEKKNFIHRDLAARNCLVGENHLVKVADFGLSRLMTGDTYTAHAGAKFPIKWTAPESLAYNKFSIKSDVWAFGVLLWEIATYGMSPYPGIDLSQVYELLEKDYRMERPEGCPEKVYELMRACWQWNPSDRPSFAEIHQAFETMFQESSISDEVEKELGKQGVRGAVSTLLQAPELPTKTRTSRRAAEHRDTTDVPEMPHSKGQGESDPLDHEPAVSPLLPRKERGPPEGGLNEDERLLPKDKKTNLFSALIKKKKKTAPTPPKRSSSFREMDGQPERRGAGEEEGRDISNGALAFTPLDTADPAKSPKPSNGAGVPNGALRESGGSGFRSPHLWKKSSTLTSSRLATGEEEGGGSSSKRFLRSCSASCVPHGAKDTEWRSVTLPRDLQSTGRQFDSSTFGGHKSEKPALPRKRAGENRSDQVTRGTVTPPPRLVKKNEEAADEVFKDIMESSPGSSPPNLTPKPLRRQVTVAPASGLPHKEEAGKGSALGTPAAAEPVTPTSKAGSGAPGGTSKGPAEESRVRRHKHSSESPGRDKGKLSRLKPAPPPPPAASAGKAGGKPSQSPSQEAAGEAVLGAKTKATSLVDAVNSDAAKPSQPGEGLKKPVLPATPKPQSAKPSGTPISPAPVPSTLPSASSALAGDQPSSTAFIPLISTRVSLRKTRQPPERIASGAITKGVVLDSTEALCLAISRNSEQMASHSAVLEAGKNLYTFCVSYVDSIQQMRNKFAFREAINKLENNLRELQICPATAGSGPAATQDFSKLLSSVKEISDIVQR

[8] = target: AURKB (Homo sapiens, UniProt Q96GD4)
AURKB, sequence (Q96GD4 whole entry): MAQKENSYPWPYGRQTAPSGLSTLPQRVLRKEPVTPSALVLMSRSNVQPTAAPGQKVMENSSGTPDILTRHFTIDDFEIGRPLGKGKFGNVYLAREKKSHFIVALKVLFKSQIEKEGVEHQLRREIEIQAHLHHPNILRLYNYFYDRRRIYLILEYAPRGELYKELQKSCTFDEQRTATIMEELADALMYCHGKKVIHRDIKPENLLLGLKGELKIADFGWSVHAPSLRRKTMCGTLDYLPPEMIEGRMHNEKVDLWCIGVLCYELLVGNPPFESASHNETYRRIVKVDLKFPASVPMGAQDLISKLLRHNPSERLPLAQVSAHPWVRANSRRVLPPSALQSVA

Cc1ccc(NC(=O)c2cccc(C(F)(F)F)c2)cc1Nc1cc(-c2cccnc2)nc2[nH]ccc12 [HZX-02-059]
remaining binding at 1 µM [1]: 77%
remaining binding at 1 µM [2]: 99%
remaining binding at 1 µM [3]: 85%
remaining binding at 1 µM [4]: 81%
remaining binding at 1 µM [5]: 98%
remaining binding at 1 µM [6]: 92%
remaining binding at 1 µM [7]: 55%
remaining binding at 1 µM [8]: 100%
